Laboratory results taken from the CheMixHub viscosity set.

Assay: xn = mol fraction of the nth substance listed

COCCOCCOCCO + ClC=C(Cl)Cl
298.15 K, 101.33 kPa
Settings	viscosity [mPa·s]
x1 = 0.0056	0.538
x1 = 0.0133	0.554
x1 = 0.0235	0.574
x1 = 0.0377	0.603
x1 = 0.0554	0.645
x1 = 0.0751	0.694
x1 = 0.0865	0.725
x1 = 0.1057	0.778
x1 = 0.1359	0.869
x1 = 0.171	0.983
x1 = 0.2125	1.134
x1 = 0.2627	1.342
x1 = 0.286	1.451
x1 = 0.3201	1.615
x1 = 0.3511	1.784
x1 = 0.3864	1.974
x1 = 0.4202	2.172
x1 = 0.4548	2.382
x1 = 0.4947	2.633
x1 = 0.5322	2.875
x1 = 0.5817	3.21
x1 = 0.6349	3.596
x1 = 0.6824	3.953
x1 = 0.7308	4.32
x1 = 0.7791	4.716
x1 = 0.8178	5.027
x1 = 0.8689	5.459
x1 = 0.9106	5.813
x1 = 0.9455	6.128
x1 = 0.9667	6.324
x2 = 0.0177	6.438

COCCOCCOCCOC + ClCCl
298.15 K, 101 kPa
Settings	viscosity [mPa·s]
x1 = 0.0122	0.436
x1 = 0.0214	0.451
x1 = 0.043	0.496
x1 = 0.0736	0.575
x1 = 0.1008	0.621
x1 = 0.159	0.752
x1 = 0.2062	0.868
x1 = 0.2482	0.96
x1 = 0.3121	1.078
x1 = 0.3987	1.247
x1 = 0.4705	1.371
x1 = 0.5389	1.476
x1 = 0.5879	1.549
x1 = 0.6389	1.645
x1 = 0.6782	1.669
x1 = 0.7651	1.787
x1 = 0.803	1.823
x1 = 0.8785	1.897
x1 = 0.9474	1.92

CCCC(=O)OC + Clc1ccccc1
viscosity [mPa·s], 101.3 kPa
Settings	308.15 K	318.15 K
x1 = 0.0851	0.648	0.601
x1 = 0.1025	0.647	0.6
x1 = 0.2257	0.63	0.588
x1 = 0.3019	0.621	0.58
x1 = 0.4004	0.607	0.567
x1 = 0.5036	0.593	0.552
x1 = 0.5911	0.58	0.54
x1 = 0.6834	0.564	0.527
x1 = 0.8223	0.541	0.504
x1 = 0.8997	0.525	0.489
x1 = 0.9522	0.515	0.479

C1COCCOCCOCCOCCO1 + O
101 kPa
Settings	viscosity [mPa·s]
293.15 K, x1 = 0.0006204	1.026
293.15 K, x1 = 0.001402	1.056
293.15 K, x1 = 0.00196	1.077
293.15 K, x1 = 0.002451	1.096
293.15 K, x1 = 0.002972	1.116
293.15 K, x1 = 0.003463	1.135
298.15 K, x1 = 0.0008458	0.9177
298.15 K, x1 = 0.001528	0.94
298.15 K, x1 = 0.002266	0.9641
298.15 K, x1 = 0.002834	0.9822
298.15 K, x1 = 0.003303	0.9976
298.15 K, x1 = 0.003773	1.013
303.15 K, x1 = 0.0006643	0.8159
303.15 K, x1 = 0.001358	0.835
303.15 K, x1 = 0.002066	0.8548
303.15 K, x1 = 0.003143	0.8854
303.15 K, x1 = 0.00351	0.8952
303.15 K, x1 = 0.003848	0.9049
308.15 K, x1 = 0.0008516	0.7393
308.15 K, x1 = 0.001375	0.7519
308.15 K, x1 = 0.001712	0.7607
308.15 K, x1 = 0.00238	0.7764
308.15 K, x1 = 0.003105	0.7938
308.15 K, x1 = 0.003675	0.8069

CC(=O)[O-].CC[N+]1(C)CCOCC1 + O
viscosity [mPa·s], 100 kPa
Settings	x1 = 0.0567	x1 = 0.0886	x1 = 0.1794	x1 = 0.253	x1 = 0.3334	x1 = 0.4341	x1 = 0.4928	x1 = 0.5718	x1 = 0.6609	x1 = 0.7155
298.15 K	3.5	7.01	36.6	89.4	203	541	671	1472	–	–
303.15 K	3.03	5.93	31.9	66	143	347	503	1093	–	–
308.15 K	2.65	5.05	27	50	104	228	383	795	1969	–
313.15 K	2.34	4.33	22.5	38.7	78.1	150	278	566	1355	2266
318.15 K	2.08	3.73	18.2	30.7	59.8	123	198	396	908	1518
323.15 K	1.86	3.25	15	24.8	46.8	92.9	144	276	599	971

CCNCC + O
297.65 K, 101.33 kPa
Settings	viscosity [mPa·s]
x1 = 0.0033	0.928
x1 = 0.0087	1.051
x1 = 0.0165	1.24
x1 = 0.023	1.405
x1 = 0.0271	1.508
x1 = 0.0342	1.691
x1 = 0.0458	1.985
x1 = 0.0592	2.305
x1 = 0.0733	2.604
x1 = 0.0885	2.863
x1 = 0.104	3.037
x1 = 0.1203	3.096
x1 = 0.1385	3.121

COCCOCCOCCOC + O
viscosity [mPa·s], 101.33 kPa
Settings	298 K	298.15 K
x1 = 0.0057	–	1.058
x1 = 0.0077	1.15	–
x1 = 0.0124	–	1.278
x1 = 0.0143	1.38	–
x1 = 0.0176	–	1.444
x1 = 0.0247	–	1.737
x1 = 0.0255	1.83	–
x1 = 0.0326	–	2.063
x1 = 0.0455	–	2.613
x1 = 0.0484	2.79	–
x1 = 0.0673	–	3.462
x1 = 0.0796	3.89	–
x1 = 0.0814	3.95	–
x1 = 0.0826	–	4.032
x1 = 0.0934	4.25	–
x1 = 0.1017	–	4.344
x1 = 0.1022	4.4	–
x1 = 0.1092	4.49	–
x1 = 0.1166	4.6	–
x1 = 0.1215	–	4.581
x1 = 0.1407	4.68	–
x1 = 0.1423	–	4.678
x1 = 0.1607	–	4.625
x1 = 0.1731	4.63	–
x1 = 0.1907	–	4.512
x1 = 0.2117	4.39	–
x1 = 0.2288	–	4.179
x1 = 0.2745	3.87	3.819
x1 = 0.3074	–	3.588
x1 = 0.3483	3.29	–
x1 = 0.3653	–	3.236
x1 = 0.4097	–	3.035
x1 = 0.4311	2.9	–
x1 = 0.4857	–	2.706
x1 = 0.5899	2.41	–
x1 = 0.593	–	2.398
x1 = 0.6382	–	2.311
x1 = 0.702	–	2.269
x1 = 0.745	2.16	–
x1 = 0.7475	–	2.22
x1 = 0.7813	–	2.166
x1 = 0.7839	2.1	–
x1 = 0.8141	–	2.121
x1 = 0.8687	2.04	–
x1 = 0.8937	–	2.068
x1 = 0.9665	–	2.035

O=S(=O)([O-])NC1CCCCC1.[K+] + O
viscosity [mPa·s], 101 kPa
Settings	x1 = 0.0007156	x1 = 0.001095	x1 = 0.001452	x1 = 0.001751	x1 = 0.002086	x1 = 0.002528	x1 = 0.002966	x1 = 0.003212	x1 = 0.003506	x1 = 0.003747
293.15 K	1.021	1.031	1.041	1.049	1.058	1.072	1.085	1.091	1.101	1.107
298.15 K	0.9071	0.9163	0.9245	0.9318	0.9397	0.9515	0.9626	0.9683	0.9765	0.982
303.15 K	0.8126	0.8204	0.8278	0.8343	0.8412	0.8514	0.8611	0.866	0.873	0.8778
313.15 K	0.6648	0.6714	0.6773	0.6823	0.6878	0.6957	0.7032	0.7073	0.7127	0.7164
323.15 K	0.5565	0.5615	0.5663	0.5703	0.5748	0.5809	0.5873	0.5902	0.5948	0.5977

O=S(=O)([O-])NC1CCCCC1.[Li+] + O
viscosity [mPa·s], 101 kPa
Settings	x1 = 0.002028	x1 = 0.002453	x1 = 0.00294	x1 = 0.003377	x1 = 0.003805	x1 = 0.004126	x1 = 0.00489
293.15 K	1.078	1.095	1.115	1.133	1.151	1.164	1.197
298.15 K	0.956	0.9707	0.9874	1.002	1.018	1.029	1.058
303.15 K	0.8547	0.8675	0.8819	0.8949	0.9081	0.9174	0.9409
313.15 K	0.6978	0.7075	0.7186	0.7288	0.739	0.7458	0.7652
323.15 K	0.5823	0.5898	0.5985	0.6067	0.6147	0.6202	0.6355

O=S(=O)([O-])[O-].[Ni+2] + O
viscosity [mPa·s], 101 kPa
Settings	x1 = 0.00332	x1 = 0.0106	x1 = 0.01799	x1 = 0.02625	x1 = 0.0309	x1 = 0.04249
298.15 K	1.04	1.32	1.82	2.66	3.13	5.21
313.15 K	0.762	0.934	1.283	1.83	2.145	3.462

OC[C@H]1O[C@@H]2O[C@H]3[C@H](O)[C@@H](O)[C@@H](O[C@H]4[C@H](O)[C@@H](O)[C@@H](O[C@H]5[C@H](O)[C@@H](O)[C@@H](O[C@H]6[C@H](O)[C@@H](O)[C@@H](O[C@H]7[C@H](O)[C@@H](O)[C@@H](O[C@H]8[C@H](O)[C@@H](O)[C@@H](O[C@H]1[C@H](O)[C@H]2O)O[C@@H]8CO)O[C@@H]7CO)O[C@@H]6CO)O[C@@H]5CO)O[C@@H]4CO)O[C@@H]3CO + O
viscosity [mPa·s], 101 kPa
Settings	298.15 K	310.15 K
x1 = 7.87e-06	0.8909	0.6934
x1 = 8.39e-06	0.891	0.6935
x1 = 1.613e-05	0.8917	0.6944
x1 = 1.679e-05	0.8918	0.6945
x1 = 3.14e-05	0.8931	0.6962
x1 = 6.268e-05	0.8961	0.6998
x1 = 6.666e-05	0.8964	0.7003
x1 = 0.0001254	0.9019	0.7071
x1 = 0.0001309	0.9024	0.7078
x1 = 0.0001573	0.9049	0.7109
x1 = 0.0001654	0.9057	0.7118
x1 = 0.0001906	0.908	0.7148
x1 = 0.0002383	0.9125	0.7203
